Experimental data reported in patent publication US4146717A, “Nitroquinazolinone compounds having antiviral properties” (priority 1974, dated 1979).
≈ marks a conversion by molar mass, not a printed value. Where two headings read alike, the source gives them in different places.

Experiments:
[1] = cited from earlier work; for undesirable side effects: clinical
[2] = system: DNA type viruses such as herpes simplex and vaccinia; settings: clinical use; cited from earlier work
[3] = Toxic effects in chick embryo fibroblast cell culture (minimum toxic concentration); settings: chicken, chick embryo fibroblast cells
[4] = Acute toxicity in mice, intraperitoneal; assay type: in vivo, mice (ddN strain); settings: for No. of survivors/No. of tested: 7 days observation
From the text: The compounds of the present invention are not only very effective but also show no side effects. For example, acute toxicity of the present compound by the intraperitoneal injection in mice is remarkably lower than Methisazone as shown in Table III.
animals: male mice weighing 17 to 20 g of ddN strain
administration: intraperitoneally, suspension in 0.5% carboxymethyl
observation period: 7 days after an administration

[5] = system: vaccinia virus IHD strain; assay type: in vivo, mice (ICR strain); settings: -2 to 100 hours after virus challenge, 12 days observation; for Survival rate, PO: 100 mg/kg orally; for Survival rate, SC: 100 mg/kg subcutaneously
[6] = system: vaccinia virus IHD strain; assay: microbe, parasite or virus in culture; assay type: cell-based; settings: for MIC: Orthopoxvirus vaccinia, in Gallus gallus, 72 h, read-out: minimum inhibitory concentration (MIC); for Chemotherapeutic index (MTC/MIC): chick embryo fibroblast cells, 4320 min
[7] = system: parainfluenza virus type 1, Sendai virus; assay: Effects on parainfluenza virus multiplication in chick embryo fibroblast cell culture (haemagglutinating titration); assay type: cell-based; settings: 2 days at 37° C, non-medicated control 32
Protocol: Effects on parainfluenza virus multiplication in chick embryo fibroblast cell culture.
A general procedure of haemagglutinating titration was employed. Monolayers of chick embryo fibroblast cells were prepared by the same procedure as described in Example 12. Parainfluenza virus type 1, haemagglutinating virus of Japan (HVJ), so called Sendai virus was challenged on 3rd day monolayer cell sheet. […] After 2 days' incubation at 37° C., the cells were harvested, disrupted by freezing and thawing and centrifuged. The haemagglutinating titre of the supernatant was assayed using 1% guinea pig red blood cell as usual.
cells: chick embryo fibroblast cell
virus: parainfluenza virus type 1, Sendai virus

[8] = system: adeno virus type 8 Kanehisa strain; settings: concentration 40; 5th day after infection; non-medicated control 512
[9] = system: herpes simplex virus HF strain; assay: Effects on herpes simplex virus multiplication in chick embryo fibroblast cell culture (plaque reduction); assay type: cell-based; settings: 5 μg/ml, 4 days at 37° C; for Average number of plaques: non-medicated control 45; for inhibition at 5 µg/mL: Fibroblast, 96 h, read-out: Percentage inhibition of occurrences of plaques
Protocol: Effects on herpes simplex virus multiplication in chick embryo fibroblast cell culture.
A general procedure of plaque-reduction method was employed. Monolayers of chick embryo fibroblast cells were prepared by a general procedure, i.e., trypsinization of 10 day old chick embryo and then 2 days' incubation in Eagle's minimum essential medium (Eagle's MEM) containing a 5% calf serum at 37° C. in a plaque tube. Then, growth medium was discarded and about 100 plaque forming units (PFU) of herpes simplex virus HF strain per plaque tube were challenged. […] After 4 day's incubation at 37° C., the number of plaques was counted and compared with the controlled plaque tube without test compounds.
cells: chick embryo fibroblast cells
virus: herpes simplex virus HF strains
observation: by counting the number of plaques after 4 days' incubation

[10] = system: Influenza virus NWS strain; assay type: in vivo, mice (ICR strain); settings: 14 days observation, control 1/8

SMILES | MCC at 72 h [3] | MIC [6] | Chemotherapeutic index (MTC/MIC) ([6]; vaccinia virus) | also measured
NC12CC3CC(CC(C3)C1)C2 [Amantadine] |  |  |  | undesirable side effects [1]: severe side effect on central nervous system
O=c1[nH]c(=O)n([C@H]2C[C@H](O)[C@@H](CO)O2)cc1I [Idoxuridine] |  |  |  | antiviral spectrum [2]: only effective against DNA type viruses such as herpes simplex and vaccinia; toxicity limiting use ([1]; clinical use): it can only be used by topical application because of its toxicity
CN1C(=O)C(=NNC(N)=S)c2ccccc21 [Methisazone, 1-methylindole-2,3-dione 3-thiosemicarbazone, reference compound] | 20 µg/mL | 5 µg/mL (≈ 21.3 µM) | 4 | No. of survivors/No. of tested ([4]; 1000 mg/kg intraperitoneally): 3/5; No. of survivors/No. of tested ([4]; 2000 mg/kg intraperitoneally): 0/5; gastro-duodenal hemorrhage and intestinal ulceration ([4]; mice of the acute toxicity test): Severe gastro-duodenal hemorrhage and intestinal ulceration were observed in dead mice; undesirable side effects [1]: severe vomiting, dermatitis and jaundice; Survival rate, PO [5]: 100%; Survival rate, SC [5]: 100%; minimum inhibitory concentration (MIC) ([6]; vaccinia virus IHD strain, 1.1 × 10^4 PFU/tube, CPE after 3 days' incubation at 37° C): 5 µg/mL (≈ 21.3 µM)
O=c1nc(-c2ccccc2)c2cc([N+](=O)[O-])ccc2n1CC1CCCCCC1 [compound 1] | 100 µg/mL | 0.1 µg/mL (≈ 0.265 µM) | 1000 | 
O=c1nc(-c2ccccc2)c2cc([N+](=O)[O-])ccc2n1C1CCCCC1 [compound 2] | 100 µg/mL | 0.1 µg/mL (≈ 0.286 µM) | 1000 | Haemagglutinating titre ([7]; 12.5 μg/ml): 4; Haemagglutinating titre ([7]; 25 μg/ml): 2
O=c1nc(-c2ccccc2)c2cc([N+](=O)[O-])ccc2n1CC1CCCCC1 [compound 3] | 100 µg/mL | 0.1 µg/mL (≈ 0.275 µM) | 1000 | Haemagglutinating titre [8]: 32; Survival rate, PO [5]: 100%; Survival rate, SC [5]: 100%
O=c1nc(-c2ccccc2)c2cc([N+](=O)[O-])ccc2n1CC1CCCCCCC1 [compound 4] | 100 µg/mL | 0.1 µg/mL (≈ 0.255 µM) | 1000 | 
O=c1nc(-c2ccccc2)c2cc([N+](=O)[O-])ccc2n1CC1CCCCO1 (centres unmarked) [compound 5] | > 100 µg/mL | 0.2 µg/mL (≈ 0.547 µM) |  | Haemagglutinating titre [8]: 64; Average number of plaques [9]: 9; inhibition at 5 µg/mL [9]: 80%; No. of survivors/No. of tested ([4]; 1000 mg/kg intraperitoneally): 5/5; No. of survivors/No. of tested ([4]; 2000 mg/kg intraperitoneally): 4/5; Survival rate ([10]; 10 mg/kg subcutaneously): 4/8; Survival rate ([10]; 50 mg/kg subcutaneously): 6/8; Survival rate, SC [5]: 100%; Haemagglutinating titre ([7]; 12.5 μg/ml): 4; Haemagglutinating titre ([7]; 25 μg/ml): < 2; Chemotherapeutic index (MTC/MIC) [6]: > 500
O=c1nc(-c2ccccc2)c2cc([N+](=O)[O-])ccc2n1Cc1ccccn1 [compound 6] | 50 µg/mL | 0.2 µg/mL (≈ 0.558 µM) | 250 | 
O=c1nc(-c2ccccc2)c2cc([N+](=O)[O-])ccc2n1CC1CCCC1 [compound 7] | > 100 µg/mL | 0.2 µg/mL (≈ 0.572 µM) | > 500 | 
O=c1nc(-c2ccccc2)c2cc([N+](=O)[O-])ccc2n1Cc1ccccc1Cl [compound 8] | 5 µg/mL | 0.25 µg/mL (≈ 0.638 µM) | 20 | 
Cc1ccccc1Cn1c(=O)nc(-c2ccccc2)c2cc([N+](=O)[O-])ccc21 [compound 9] | 5 µg/mL | 0.25 µg/mL (≈ 0.673 µM) | 20 | Average number of plaques [9]: 2; inhibition at 5 µg/mL [9]: 96%
O=c1nc(-c2cccs2)c2cc([N+](=O)[O-])ccc2n1CC1CCCCO1 (centres unmarked) [compound 10] | > 100 µg/mL | 0.4 µg/mL (≈ 1.08 µM) | > 250 | 
O=c1nc(-c2ccccc2)c2cc([N+](=O)[O-])ccc2n1Cc1ccccc1 [compound 11] | 25 µg/mL | 0.6 µg/mL (≈ 1.68 µM) | 40 | Survival rate, SC [5]: 100%
O=c1nc(-c2ccccc2)c2cc([N+](=O)[O-])ccc2n1Cc1cccs1 [compound 12] | 50 µg/mL | 0.6 µg/mL (≈ 1.65 µM) | 80 | 
O=c1nc(-c2ccccc2)c2cc([N+](=O)[O-])ccc2n1Cc1ccco1 [compound 13] | 100 µg/mL | 1 µg/mL (≈ 2.88 µM) | 100 | 
O=c1nc(-c2ccccc2)c2cc([N+](=O)[O-])ccc2n1CC1CCCO1 (centres unmarked) [compound 14] | > 100 µg/mL | 1.25 µg/mL (≈ 3.56 µM) | > 80 | Haemagglutinating titre [8]: 32; No. of survivors/No. of tested ([4]; 1000 mg/kg intraperitoneally): 5/5; No. of survivors/No. of tested ([4]; 2000 mg/kg intraperitoneally): 4/5; Survival rate, SC [5]: 100%
O=c1nc(-c2ccccc2)c2cc([N+](=O)[O-])ccc2n1CCC1CCCCC1 [compound 15] | > 100 µg/mL | 5 µg/mL (≈ 13.2 µM) | > 20 | 
CCN(CC)C(=O)Cn1c(=O)nc(-c2ccccc2)c2cc([N+](=O)[O-])ccc21 [compound 17] | > 100 µg/mL | 5 µg/mL (≈ 13.1 µM) | > 20 | 
O=c1nc(-c2ccccc2)c2cc([N+](=O)[O-])ccc2n1CC1CC1 [compound 18] | > 100 µg/mL | 5 µg/mL (≈ 15.6 µM) | > 20 | 
CCOCCn1c(=O)nc(-c2ccccc2)c2cc([N+](=O)[O-])ccc21 [compound 19] | > 100 µg/mL | 5 µg/mL (≈ 14.7 µM) | > 20 | 
O=c1nc(-c2ccccc2Cl)c2cc([N+](=O)[O-])ccc2n1CC1CC1 [compound 20] | 50 µg/mL | 5 µg/mL (≈ 14.1 µM) | 10 | 
O=c1nc(C2CCCCC2)c2cc([N+](=O)[O-])ccc2n1CC1CC1 [compound 21] | 50 µg/mL | 5 µg/mL (≈ 15.3 µM) | 10 | 
CSCn1c(=O)nc(-c2ccccc2)c2cc([N+](=O)[O-])ccc21 [compound 22] | 50 µg/mL | 5 µg/mL (≈ 15.3 µM) | 10 | 
